Source: PMC11053681, “Gold(I) and Silver(I) Complexes Containing Hybrid Sulfonamide/Thiourea Ligands as Potential Leishmanicidal Agents” (Pharmaceutics, 2024)
Like-named read-outs stand apart in the source and are kept apart here.

Columns and labels:
Leishmania braziliensis = experiment: Leishmanicidal activity against promastigotes (resazurin); format: cell-based
Outline: (§1)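 Stationary-phase (day 5) metacyclic promastigotes were purified by centrifugation and plated at 1 × 10^7 parasites per well in Schneider medium. Compounds were tested in triplicate from 500 µM down to 3.9 µM by serial dilution for 24 h. Viability was read by resazurin fluorescence.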

Leishmania infantum = experiment: as above; format: cell-based; conditions: promastigote form, 24 h treatment, resazurin; read-out: IC50 L. infantum
Outline: as §1

[1] = Solubility in buffer for the fluorescence experiments; format: physicochemical; conditions: Tris-HCl buffer
Description: (§2) The compounds were solubilized in DMSO and then we made successive dilutions in a Tris-HCl 25 mmol L^−1 buffer, pH 8.0, containing 100 mmol L^−1 of NaCl. For all experiments, the final concentration of DMSO was kept constant and equal to 2.5%. Solutions with increasing concentrations of ligand and constant concentration of LbOYE (1 µmol L^−1) were prepared, which were kept at 25 °C for a period of 1h before acquisition of fluorescence emission spectra.
After the synthesis and structural characterization of the compounds, studies of interaction of the compounds and the recombinant LbOYE were carried out by fluorescence measurements.

Vero cells = experiment: Cytotoxicity assay on Vero cells (resazurin); format: cell-based, African green monkey; conditions: 24 h treatment
Outline: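 Vero cells seeded at 5 × 10^5 cells/well, grown 24 h at 37 °C, 5% CO2 in RPMI with 10% FBS. Compounds tested in triplicate by serial dilution from 500 µM to 3.9 µM for 24 h. Viability read as resazurin fluorescence.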

LbOYE = LbOYE (Leishmania braziliensis, UniProt A4H6Z3); experiment: Suppression of intrinsic tryptophan fluorescence of LbOYE; format: binding; conditions: 25 °C
Text: The recombinant LbOYE protein was produced using the methodology previously described. Briefly, the protein was expressed in strains of bacterial Escherichia coli BL21(DE3) through induction by IPTG using the pET28a:LbOYE vector. The enzyme was purified through a chromatography step of capture by nickel affinity, as the pET28a vector allows the expression of a polyhistidine fusion peptide, located at the N-terminal end of the protein. After affinity purification, the polyhistidine tail was excised by “overnight” incubation with thrombin, and the second purification step was performed using size exclusion chromatography. Purification was evaluated by SDS-PAGE and protein concentration was estimated by spectrophotometry.
The emission spectra of the intrinsic fluorescence of the tryptophan were recorded using a Shimadzu F-4500 spectrofluorometer in the range of 310–420 nm, with opening of slits of excitation and emission at 5.0 nm and λex = 295 nm. Interaction analyzes between LbOYE and ligands were performed at λmax = 333 nm.
as §2
The results were obtained from the fluorescence emission spectra of the intrinsic tryptophan probe in the presence of the compounds HL1^Ch, HL3^FPh, HL5^NO2Ph, [Au(HL1^Ch)2]Cl and [Ag(HL3^FPh)2]NO3. The bonding parameters were determined by the Hill plot, obtaining the dissociation constant (Kd) through the non-linear adjustment of the saturation curve to the experimental data. The double-log plot was used to determine the bonding constant and the number of bonding sites (n). It also allows the calculation of the bonding constant (Kb) and Kd from 1/Kb.
Equation (1)—Hill’s equation:(1) F0−F/F0=[L]/L+Kd
Equation (2)—Double-log:(2) logF0−F/F0=nlogKb−nlog1/L−(F0−F)[P0]/F
Equation (3)—Equation of Stern–Volmer:(3) F0/F=1+KSV[L]
The study of fluorescence quenching can be affected when the ligand has absorption bands that coincide with excitation and emission wavelengths of fluorescence. This interference is called the internal filter effect, which can be minimized using the procedure described by Equation (4). Fobs and Fcor are the fluorescence intensities at 333 nm measured and corrected, respectively; l represents the optical step where the absorption and emission of light occurs and C0 is the concentration of the ligand.
For the correction of the internal filter effect, were used the molar absorptivity coefficient values in the excitation (295 nm) and emission (333 nm) lengths, [λ/ε (L mol^−1 cm^−1)]; HL1^Ch (εex = 373 and εem = 117), HL3^FPh (εex = 1191 and εem = 57), HL5^NO2Ph (εex = 6162 and εem = 9124), Au1 (εex = 7045 and εem = 4008) and Ag3 (εex = 9431 and εem = 3281).

Sequence of LbOYE (A4H6Z3 entry or part of it): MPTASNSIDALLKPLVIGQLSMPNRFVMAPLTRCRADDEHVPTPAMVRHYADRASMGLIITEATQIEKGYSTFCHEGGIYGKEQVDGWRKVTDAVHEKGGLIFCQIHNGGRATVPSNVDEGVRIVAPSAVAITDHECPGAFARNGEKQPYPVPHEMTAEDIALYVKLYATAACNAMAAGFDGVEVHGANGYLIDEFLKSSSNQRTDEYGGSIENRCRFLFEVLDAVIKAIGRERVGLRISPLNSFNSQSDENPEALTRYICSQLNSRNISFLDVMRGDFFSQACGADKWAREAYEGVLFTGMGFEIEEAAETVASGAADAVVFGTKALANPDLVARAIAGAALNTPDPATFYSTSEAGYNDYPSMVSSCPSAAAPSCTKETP

For Cc1ccc(S(=O)(=O)NNC(Nc2ccc(F)cc2)=[S][Ag+][S]=C(NNS(=O)(=O)c2ccc(C)cc2)Nc2ccc(F)cc2)cc1.O=[N+]([O-])[O-] [Ag3, [Ag(HL3^FPh)2]NO3], the IC50 (Leishmania braziliensis; promastigote form, 24 h treatment, resazurin, read-out: IC50 L. braziliensis) was 233.9 ± 0.031 µM, the “SI L. braziliensis” value (Leishmania braziliensis; selectivity index = CC50 (Vero) / IC50 (L. braziliensis promastigotes)) was over 2.14 and the IC50 (Leishmania infantum) was 92.83 ± 0.072 µM. The “Solubility in buffer at the concentrations for the fluorescence experiments, in words” value [1] was “passed this stage”, the CC50 (Vero cells) was over 500 µM and the Kd (LbOYE; Hill plot (n = 1), Equation (1), Tris-HCl pH 8.0, 2.5% DMSO, read-out: Kd * (Hill plot)) was 9.6 ± 0.7 µM. For the same compound, the “Ksv *** (Stern–Volmer constant)” value (LbOYE; Stern–Volmer, Equation (3)) was 23 ± 2 × 10^4, the Kd (LbOYE; double log, Equation (2), Kd = 1/Kb, read-out: Kd ** (double log) (converted)) was 11.2 ± 0.3 µM and the “n ** (number of bonding sites)” value (LbOYE; double log, Equation (2)) was 2.0 ± 0.1.
